Results: US20240041870A1, “METHODS OF TREATING SYSTEMIC LUPUS ERYTHEMATOSUS” (AbbVie Inc., priority 2022, published 2024)

Test system: subjects with moderately to severely active SLE
Assay: Phase 2 Study M19-130: safety and efficacy of upadacitinib vs placebo, 48-week treatment period
Format: in vivo, human
From the text: This was a Phase 2 Study (M19-130) to Investigate the Safety and Efficacy of Upadacitinib Given in Subjects with Moderately to Severely Active Systemic Lupus Erythematosus.
Subjects must have had active SLE by SLEDAI-2K ≥6 as reported and independently adjudicated (clinical score ≥4, excluding lupus headache and/or organic brain syndrome) at Screening and Baseline. If 4 points of the required entry points were for arthritis, there must also have been a minimum of 3 tender and 3 swollen joints.
The primary efficacy endpoint was achievement of SLE Responder Index (SRI)-4 and steroid dose ≤10 mg prednisone equivalent once a day (QD) at Week 24. SLE Responder Index (SRI)-4 is defined as ≥4-point reduction in Systemic Lupus Erythematosus Disease Activity Index 2000 (SLEDAI-2K) score without worsening of the overall condition (no worsening in Physician's Global Assessment [PhGA], <0.3 point increase) or the development of significant disease activity in new organ systems (no new British Isles Lupus Assessment Group ([BILAG]) A or >1 new BILAG B).
The following secondary efficacy endpoints were evaluated: • 1. Achievement of SRI-4 at Week 24 • 2. Achievement of BILAG-Based Combined Lupus Assessment (BICLA) response at Week 24 • 3. Achievement of Lupus Low Disease Activity State (LLDAS) at Week 24 • 4. Steroid burden, assessed as change from Baseline at Week 24 • 5. Number of mild, moderate, or severe flares per patient-year (respectively and overall) by Safety of Estrogens in Lupus Erythematosus National Assessment (SELENA) SLEDAI Flare Index (SFI), assessed by number and types of flare per subject through Week 24
The following additional efficacy endpoints were evaluated at all visits unless otherwise noted: • 1. Achievement of SRI-4 • 2. Achievement of SRI-5, -6, -7, -8 and steroid dose ≤10 mg prednisone equivalent QD at Weeks 24 and 48 • 3. Achievement of SRI-5, -6, -7, -8 • 4. Achievement of BICLA response • 5. Achievement of LLDAS • 6. Achievement of ≥4-point decrease in SLEDAI-2K from Baseline • 7. Steroid burden, assessed as change from Baseline • 8. Number of mild, moderate, or severe flares per patient-year (respectively and overall) by SELENA SFI, assessed by number and types of flare per subject through Week 24 and Week 48 • 9. Time to first flare by SELENA SFI after first study drug administration up to Week 24 and Week 48 • 10. Achievement of 50% reduction of tender or swollen lupus joints defined as ≥50% decrease in either tender or swollen joints (of those starting with total ≥6 affected joints) • 11. Achievement of 50% reduction in Cutaneous Lupus Erythematosus Disease Area and Severity Index (CLASI) activity score (of those starting with CLASI ≥10) • 12. Change in SLEDAI-2K from Baseline • 13. Change in BILAG from Baseline • 14. Change in PhGA from Baseline • 15. Change in Patient Global Assessment (PtGA) from Baseline • 16. Change from Baseline in Functional Assessment of Chronic Illness Therapy (FACIT)—Fatigue at Weeks 2, 12, 24, and 48 • 17. Change from Baseline in 36-Item Short Form Health Survey (SF-36) at Weeks 2, 12, 24, and 48 • 18. Change from Baseline Lupus Quality of Life questionnaire (LupusQoL) at Weeks 2, 12, 24, and 48 • 19. Change from Baseline Pain Numerical Rating Scale (NRS) at Weeks 2, 12, 24, and 48
The study was designed to investigate the safety and efficacy of upadacitinib in subjects with moderately to severely active SLE despite standard of care therapy. The study duration included a 42-day maximum screening period, a 48-week randomized, placebo-controlled, double-blind, parallel-group treatment period, and a 30-day follow-up phone call. The Week 24 Primary Analysis was performed when all subjects completed the Week 24 visit or discontinued the study. Sites and subjects remained blinded throughout the study. The study team remained blinded until the Week 24 Primary Analysis. […]

[1] = 30 mg QD oral, N = 62, Week 24 interim analysis (Example 1)
[2] = 30 mg QD oral, N = 62, Week 24 interim analysis (Example 1), listed as UPA
[3] = 30 mg QD oral, N = 62, final database (Example 2)
[4] = 30 mg QD oral, N = 62, full analysis set, Week 24 interim analysis (Example 1)
[5] = 30 mg QD oral, final database (Example 2)
[6] = 30 mg QD vs PBO (N = 75), stratum-adjusted, final database (Example 2)
[7] = 30 mg QD, N = 62, subject disposition, Week 24 interim analysis

CC[C@@H]1CN(C(=O)NCC(F)(F)F)C[C@@H]1c1cnc2cnc3[nH]ccc3n12 [Upadacitinib, (3S,4R)-3-ethyl-4-(3H-imidazo[1,2-a]pyrrolo[2,3-e]pyrazin-8-yl)-N-(2,2,2-trifluoroethyl)pyrrolidine-1-carboxamide]
Prednisone Equivalent Steroid Dose; Week 48; LS Mean Change (SE) (30 mg QD oral, N = 38, final database (Example 2)): −1.20 (0.524) | Prednisone Equivalent Steroid Dose at Week 24; LS Mean Change (SE) (30 mg QD oral, N = 48, change from Baseline, Week 24 interim analysis (Example 1)): −0.64 (0.486) | Prednisone Equivalent Steroid Dose; Week 24; LS Mean Change (SE) (30 mg QD oral, N = 48, final database (Example 2)): −0.62 (0.496) | BICLA at Week 24; % [1]: 58.1% | BICLA at Week 24; n [1]: 36 n | Flares per SELENA SLEDAI Flare Index through Week 24; Any flares [1]: 1.73 Events/PY | Flares per SELENA SLEDAI Flare Index through Week 24; Mild/Moderate [1]: 1.66 Events/PY | Flares per SELENA SLEDAI Flare Index through Week 24; Severe [1]: 0.07 Events/PY | LLDAS at Week 24; % [1]: (43.5) % | LLDAS at Week 24; n [1]: 27 n | SRI-4 at Week 24; % [1]: 53.6% | SRI-4 at Week 24; n [1]: 33 n | BICLA at Week 24; % [2]: (58.1) % | SRI-4 at Week 24; % [2]: (53.2) % | BICLA; Week 24; % [3]: (58.1) % | BICLA; Week 24; n [3]: 36 n | BICLA; Week 48; % [3]: (53.2) % | BICLA; Week 48; n [3]: 33 n | Flares per SELENA SLEDAI Flare Index Through Week 48; Any flares [3]: 2.04 Events/PY | Flares per SELENA SLEDAI Flare Index Through Week 48; Mild/Moderate [3]: 1.88 Events/PY | Flares per SELENA SLEDAI Flare Index Through Week 48; Severe [3]: 0.16 Events/PY | Flares per SELENA SLEDAI Flare Index through Week 24; Any flares [3]: 1.87 Events/PY | Flares per SELENA SLEDAI Flare Index through Week 24; Mild/Moderate [3]: 1.76 Events/PY | Flares per SELENA SLEDAI Flare Index through Week 24; Severe [3]: 0.10 Events/PY | LLDAS; Week 24; % [3]: (45.2) % | LLDAS; Week 24; n [3]: 28 n | LLDAS; Week 48; % [3]: (50.0) % | LLDAS; Week 48; n [3]: 31 n | SRI-4; Week 24; % [3]: (56.5) % | SRI-4; Week 24; n [3]: 35 n | SRI-4; Week 48; % [3]: 45.2% | SRI-4; Week 48; n [3]: 28 n | SRI-4 and Prednisone Equivalent Steroid Dose ≤10 mg; Week 24; % [3]: (54.8) % | SRI-4 and Prednisone Equivalent Steroid Dose ≤10 mg; Week 48; % [3]: (43.5) % | SRI-4 and Prednisone Equivalent Steroid Dose ≤10 mg; Week 48; n [3]: 27 n | SRI-4; Week 48; % (30 mg QD oral, N = 62, final database (Example 2), listed as UPA): (45.2) % | SRI-4 and Prednisone Equivalent Steroid Dose ≤10 mg at Week 24; % [4]: 51.6% | SRI-4 and Prednisone Equivalent Steroid Dose ≤10 mg at Week 24; n [4]: 32 n | SRI-4 and Prednisone Equivalent Steroid Dose ≤10 mg at Week 24; % (30 mg QD oral, N = 62, full analysis set, Week 24 interim analysis (Example 1), listed as UPA): (51.6) % | SRI-4 and Prednisone Equivalent Steroid Dose ≤10 mg; Week 24; n (30 mg QD oral, N = 62, full analysis set, final database (Example 2)): 34 n | 50% Reduction of Tender or Swollen Lupus Joints among Subjects with Total >=6 Affected Joints; Week 24; % [5]: (67.8) % | 50% Reduction of Tender or Swollen Lupus Joints among Subjects with Total >=6 Affected Joints; Week 24; n [5]: 40/59 | 50% Reduction of Tender or Swollen Lupus Joints among Subjects with Total >=6 Affected Joints; Week 48; % [5]: (57.6) % | 50% Reduction of Tender or Swollen Lupus Joints among Subjects with Total >=6 Affected Joints; Week 48; n [5]: 34/59 | BICLA; Week 48; Adj. Diff (−PBO) [95% CI] [6]: 30.8 | SRI-4; Week 48; Adj. Diff (−PBO) [95% CI] [6]: 30.4 | SRI-4 and Steroid Dose ≤10 mg prednisone equivalent QD; stratum-adjusted treatment difference (30 mg QD vs placebo, Week 24, Example 1): 14.0% | Discontinued from the Study Drug (All Reasons): Adverse event; % [7]: 9.7% | Discontinued from the Study Drug (All Reasons): Adverse event; n [7]: 6 n | Discontinued from the Study Drug (Primary Reasons): Adverse event; % [7]: 8.1% | Discontinued from the Study Drug (Primary Reasons): Adverse event; n [7]: 5 n | Withdrawal from the Study (All Reasons): Adverse event; % [7]: 6.5% | Withdrawal from the Study (All Reasons): Adverse event; n [7]: 4 n | Withdrawal from the Study (Primary Reasons): Adverse event; % [7]: 4.8% | Withdrawal from the Study (Primary Reasons): Adverse event; n [7]: 3 n | response rate in BICLA after Week 24 (30 mg, Week 24 to Week 48): generally maintained | response rate in SRI-4 after Week 24 (30 mg, Week 24 to Week 48): generally maintained | flare compared to placebo (30 mg, over 48 weeks): reductions in flare | time-to-first flare compared to placebo (30 mg, over 48 weeks): delays in time-to-first flare | LLDAS at Week 24 compared with placebo (30 mg, p<0.001, Example 1): greater efficacy than placebo | flare rate through Week 24 compared with placebo (30 mg, p=0.075, Example 1): lower flare rate | response rate for achievement of BICLA at Week 48 (30 mg, text of Example 2): 53.2%
